Measured values as given in patent publication US8722578B2, “Spiroheterocyclic pyrrolidinedione herbicidal compositions” (Syngenta Participations AG, priority 2008, dated 2014).

Experiments:
Lolium perenne (LOLPE) [1] = assay: Example A pre-emergence herbicidal activity, glasshouse pot test; format: in vivo; conditions: 480 h, rate 250 g/ha, evaluated 20 days after spraying, read-out: LOLPE pre-emergence activity (100=total damage to plant; 0=no damage to plant)
Experimental: (§1) Monocotyledonous and dicotyledonous test plants are sown in standard soil in pots. After cultivation for one day (pre-emergence) or after 10 days cultivation (post-emergence) under controlled conditions in a glasshouse, the plants are sprayed with an aqueous spray solution derived from the formulation of the technical active ingredient in 0.6 ml acetone and 45 ml formulation solution containing 10.6% Emulsogen EL (Registry number 61791-12-6), 42.2% N-methylpyrrolidone, 42.2% dipropylene glycol monomethyl ether (Registry number 34590-94-8) and 0.2% X-77 (Registry number 11097-66-8). The test plants are then grown in a greenhouse under optimum conditions until, 15 days later for post-emergence and 20 days for pre-emergence, the test is evaluated (100=total damage to plant; 0=no damage to plant). Test Plants: Alopecurus myosuroides (ALOMY), Avena fatua (AVEFA), Lolium perenne (LOLPE), Setaria faberi (SETFA), Digitaria sanguinalis (DIGSA), Echinochloa crus-galli (ECHCG) Pre-Emergence Activity

[2] = tested on: Alopecurus myosuroides (ALOMY); assay: as above; format: in vivo; conditions: 480 h, rate 250 g/ha, evaluated 20 days after spraying, read-out: ALOMY pre-emergence activity (100=total damage to plant; 0=no damage to plant)
Experimental: as §1

Setaria faberi (SETFA) [3] = assay: as above; format: in vivo; conditions: 480 h, rate 250 g/ha, evaluated 20 days after spraying, read-out: SETFA pre-emergence activity (100=total damage to plant; 0=no damage to plant)
Experimental: as §1

[4] = tested on: Digitaria sanguinalis (DIGSA); assay: as above; format: in vivo; conditions: 480 h, rate 250 g/ha, evaluated 20 days after spraying, read-out: DIGSA pre-emergence activity (100=total damage to plant; 0=no damage to plant)
Experimental: as §1

[5] = tested on: Echinochloa crus-galli (ECHCG); assay: as above; format: in vivo; conditions: 480 h, rate 250 g/ha, evaluated 20 days after spraying, read-out: ECHOG pre-emergence activity (100=total damage to plant; 0=no damage to plant)
Experimental: as §1

Avena fatua (AVEFA) [6] = assay: as above; format: in vivo; conditions: 480 h, rate 250 g/ha, evaluated 20 days after spraying, read-out: AVEFA pre-emergence activity (100=total damage to plant; 0=no damage to plant)
Experimental: as §1

[7] = tested on: Alopecurus myosuroides (ALOMY); assay: Example B post-emergence herbicidal activity, glasshouse pot test; format: in vivo; conditions: 312 h, rate 250 g/ha, evaluated after 13 days, read-out: ALOMY post-emergence activity (100=total damage to plant; 0=no damage to plant)
Summary of the method: (§2)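 Damage is rated visually 13 days after spraying on a 0 (no damage) to 100 (total damage) scale. The aqueous spray is derived from an acetone/water (50:50) formulation with 0.5% Tween 20 and is applied one day after sowing for pre-emergence or after 8 days of cultivation for post-emergence.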

Setaria faberi (SETFA) [8] = assay: as above; format: in vivo; conditions: 312 h, rate 250 g/ha, evaluated after 13 days, read-out: SETFA post-emergence activity (100=total damage to plant; 0=no damage to plant)
Summary of the method: as §2

[9] = tested on: Echinochloa crus-galli (ECHCG); assay: as above; format: in vivo; conditions: 312 h, rate 250 g/ha, evaluated after 13 days, read-out: ECHCG post-emergence activity (100=total damage to plant; 0=no damage to plant)
Summary of the method: as §2

Avena fatua (AVEFA) [10] = assay: as above; format: in vivo; conditions: 312 h, rate 250 g/ha, evaluated after 13 days, read-out: AVEFA post-emergence activity (100=total damage to plant; 0=no damage to plant)
Summary of the method: as §2

[11] = tested on: Alopecurus myosuroides (ALOMY); assay: Example B pre-emergence herbicidal activity, glasshouse pot test; format: in vivo; conditions: 312 h, first table (headed Post-Emergence, taken as pre-emergence), rate 250 g/ha, evaluated after 13 days, read-out: ALOMY activity (100=total damage to plant; 0=no damage to plant)
Summary of the method: as §2

Setaria faberi (SETFA) [12] = assay: as above; format: in vivo; conditions: 312 h, first table (headed Post-Emergence, taken as pre-emergence), rate 250 g/ha, evaluated after 13 days, read-out: SETFA activity (100=total damage to plant; 0=no damage to plant)
Summary of the method: as §2

[13] = tested on: Echinochloa crus-galli (ECHCG); assay: as above; format: in vivo; conditions: 312 h, first table (headed Post-Emergence, taken as pre-emergence), rate 250 g/ha, evaluated after 13 days, read-out: ECHCG activity (100=total damage to plant; 0=no damage to plant)
Summary of the method: as §2

Avena fatua (AVEFA) [14] = assay: as above; format: in vivo; conditions: 312 h, first table (headed Post-Emergence, taken as pre-emergence), rate 250 g/ha, evaluated after 13 days, read-out: AVEFA activity (100=total damage to plant; 0=no damage to plant)
Summary of the method: as §2

Lolium perenne (LOLPE) [15] = assay: Example A post-emergence herbicidal activity, glasshouse pot test; format: in vivo; conditions: 360 h, rate 125 g/ha, evaluated 15 days after spraying, read-out: LOLPE post-emergence activity (100=total damage to plant; 0=no damage to plant)
Experimental: as §1, with “Post-Emergence” for “Pre-Emergence”

[16] = tested on: Alopecurus myosuroides (ALOMY); assay: as above; format: in vivo; conditions: 360 h, rate 125 g/ha, evaluated 15 days after spraying, read-out: ALOMY post-emergence activity (100=total damage to plant; 0=no damage to plant)
Experimental: as §1, with “Post-Emergence” for “Pre-Emergence”

Setaria faberi (SETFA) [17] = assay: as above; format: in vivo; conditions: 360 h, rate 125 g/ha, evaluated 15 days after spraying, read-out: SETFA post-emergence activity (100=total damage to plant; 0=no damage to plant)
Experimental: as §1, with “Post-Emergence” for “Pre-Emergence”

[18] = tested on: Digitaria sanguinalis (DIGSA); assay: as above; format: in vivo; conditions: 360 h, rate 125 g/ha, evaluated 15 days after spraying, read-out: DIGSA post-emergence activity (100=total damage to plant; 0=no damage to plant)
Experimental: as §1, with “Post-Emergence” for “Pre-Emergence”

[19] = tested on: Echinochloa crus-galli (ECHCG); assay: as above; format: in vivo; conditions: 360 h, rate 125 g/ha, evaluated 15 days after spraying, read-out: ECHOG post-emergence activity (100=total damage to plant; 0=no damage to plant)
Experimental: as §1, with “Post-Emergence” for “Pre-Emergence”

Avena fatua (AVEFA) [20] = assay: as above; format: in vivo; conditions: 360 h, rate 125 g/ha, evaluated 15 days after spraying, read-out: AVEFA post-emergence activity (100=total damage to plant; 0=no damage to plant)
Experimental: as §1, with “Post-Emergence” for “Pre-Emergence”

SMILES | pest or weed control at 250 g/ha (Lolium perenne (LOLPE) [1]) [%] | pest or weed control at 250 g/ha [2] [%] | pest or weed control at 250 g/ha (Setaria faberi (SETFA) [3]) [%] | pest or weed control at 250 g/ha [4] [%] | pest or weed control at 250 g/ha [5] [%] | pest or weed control at 250 g/ha (Avena fatua (AVEFA) [6]) [%] | pest or weed control at 250 g/ha [7] [%] | pest or weed control at 250 g/ha (Setaria faberi (SETFA) [8]) [%] | pest or weed control at 250 g/ha [9] [%] | pest or weed control at 250 g/ha (Avena fatua (AVEFA) [10]) [%] | melting point [°C] | pest or weed control at 250 g/ha [11] [%] | pest or weed control at 250 g/ha (Setaria faberi (SETFA) [12]) [%] | pest or weed control at 250 g/ha [13] [%] | pest or weed control at 250 g/ha (Avena fatua (AVEFA) [14]) [%] | pest or weed control at 125 g/ha (Lolium perenne (LOLPE) [15]) [%] | pest or weed control at 125 g/ha [16] [%] | pest or weed control at 125 g/ha (Setaria faberi (SETFA) [17]) [%] | pest or weed control at 125 g/ha [18] [%] | pest or weed control at 125 g/ha [19] [%] | other results
CCOC(=O)OC1=C(c2cc(-c3ccc(Cl)cc3)c(C)cc2C)C(=O)NC12CCN(OC)CC2 [Compound P53] | 20 | 0 | 40 | 60 | 50 | 30 | 70 | 90 | 90 | 30 | 211 to 213 | 0 | 80 | 0 | 0 | 0 | 20 | 50 | 60 | 60 | pest or weed control at 125 g/ha (Avena fatua (AVEFA) [20]): 0%
CON1CCC2(CC1)NC(=O)C(c1ccc(Br)cc1Cl)=C2OC(=O)C(C)(C)C [Compound P67] | 10 | 0 | 50 | 20 | 60 | 40 | 100 | 90 | 100 | 60 | 223 to 225 | 80 | 100 | 70 | 60 | 40 | 40 | 70 | 80 | 70 | pest or weed control at 125 g/ha (Avena fatua (AVEFA) [20]): 60%
CCOC(=O)OC1=C(c2c(C)cc(-c3ccc(Cl)cc3)cc2C)C(=O)NC12CCN(OC)CC2 [Compound P70] | 30 | 70 | 100 | 100 | 100 | 70 | 100 | 100 | 100 | 100 | 217 to 219 | 90 | 100 | 100 | 90 | 0 | 0 | 90 | 100 | 100 | pest or weed control at 125 g/ha (Avena fatua (AVEFA) [20]): 10%
CON1CCC2(CC1)NC(=O)C(c1c(C)cc(-c3ccc(Cl)cc3)cc1C)C2=O (stereo not drawn) [Compound T23] | 40 | 40 | 100 | 100 | 100 | 50 | 100 | 100 | 100 | 100 | 255 to 257 | 70 | 100 | 90 | 90 | 80 | 100 | 100 | 100 | 100 | pest or weed control at 125 g/ha (Avena fatua (AVEFA) [20]): 100%
